Earlier results in US20230114993A1 (priority 2019, published 2023).

System: CADASIL
Settings: compared to placebo, CADASIL patients

For `COc1cc2c(cc1OC)C(=O)C(CC1CCN(Cc3ccccc3)CC1)C2` (stereo not shown) [donepezil], the “Treatment effect in cognitive and executive function assessments” value is given as “failed to show any treatment effect”.
